{"source": "patent US20070098801A1", "about": "“Particles shaped as platelets” (JANSSEN PHARMACEUTICA N.V., priority 2003, published 2007)", "test": "Modulated differential scanning calorimetry (glass transition in the reversing signal)", "type": "physicochemical", "procedure": "Modulated Differential scanning calorimetry (MDSC) was performed to evaluate the thermal characteristics before and after melt extrusion with injection of pressurized carbon dioxide. […] A glass transition is observed as an inflection in the DSC profile when heat flow is plotted against temperature. Often, the glass transition is accompanied with an enthalpy relaxation, which is seen as an endothermic signal superimposed on the glass transition. Furthermore, these polymers can be hydrophilic and thus they may have adsorbed a significant amount of water. Evaporation of water is also an endothermic process. These signals make interpretation of the glass transition difficult. Therefore, MDSC was used so that the different thermal events could be elucidated with regard to the reversible and non-reversible transitions. […]\nThe measurements were performed using a TA Instruments modulated DSC Q1000 differential scanning calorimeter and thermal analysis controller (TA Instruments, New Castle, Del., USA). […] The samples were analysed in standard (open) aluminum as well as in hermetically sealed TA Instruments pans. […] The glass transition was measured at the inflection point as half the height of the shift in the heat flow signal (Tg 1/2 cp). […]\nThe samples measured in open pans as well as in hermetically sealed pans were analysed at least in duplicate."}
{"compound": "CCC(C)n1ncn(-c2ccc(N3CCN(c4ccc(OCC5COC(Cn6cncn6)(c6ccc(Cl)cc6Cl)O5)cc4)CC3)cc2)c1=O", "note": "(stereo not shown) [itraconazole]", "values": [{"measurement": "Melting enthalpy ΔH of pure itraconazole", "value": 85, "unit": "J/g"}]}
